Experimental data: the NIST ThermoML archive (doi:10.1016/j.jct.2016.09.038)
Numbers after ± are expanded uncertainties.

Assays:
[1] = Molar enthalpy of transition or fusion; details: Crystal; DSC
[2] = Crystal; DTA

Molar enthalpy of transition or fusion [1]: 9.05 ± 0.263 kcal/mol | Normal melting temperature [2]: 160.66 ± 1.1 °C
Compound: CC(C)(C)[C@H](O)[C@H](Cc1ccc(Cl)cc1)n1cncn1 [2S,3S-Paclobutrazol]
